Reference: patent publication US20080069827A1, “miRNA of HSV-LAT and uses thereof” (priority 2006, published 2008)

Legend:
Format in all cases: cell-based
SY5Y cells = test: Apoptosis assay (AnnexinV FITC staining after cisplatin or etoposide) in SY5Y cells; settings: cisplatin 24 h post transfection, compared to control
Method: (§1) 24 hours post-transfection cells were treated with cisplatin (10 µM) or etoposide (1-100 μM), followed by staining with AnnexinV FITC (BD Biosciences). Cells showing FITC staining, loss of cell volume, loss of refractility, and membrane blebbing were scored as apoptotic. At least 500 cells were counted in each well.
(§2) 24 hours post-transfection cells were treated with cisplatin (10 μM) or etoposide ([…]), followed by staining with AnnexinV FITC (BD Biosciences). Cells showing FITC staining, loss of cell volume, loss of refractility, and membrane blebbing were scored as apoptotic. At least 500 cells were counted in each well. The data represent mean±S.D. from at least three independent experiments.

HeLa cells = test: Apoptosis assay (AnnexinV FITC staining after cisplatin or etoposide) in HeLa cells; settings: cisplatin 24 h post transfection, compared to control miRNA
Method: as §1, §2

3′UTR of TGF-β = test: Renilla luciferase reporter with 3′UTR / mirLAT target site of TGF-β in SY5Y cells
Method: (§3) Cells were co-transfected with pCDNA or PstMlu (1 μg) and the respective reporter constructs (500 ng) along with pSV-βgal (10 ng). For induction of TGF-p signaling, 24 h following transfection the cells were treated with 10 ng/ml of recombinant TGF-β1 protein (R&D systems). Reporter activity was measured using a appropriate assay kits (promega).
(§4) SY5Y cells were maintained in RPMI medium with 10% fetal calf serum and antibiotics. HeLa cells were grown in DMEM medium supplemented with 5% fetal calf serum and antibiotics. Plasmids having the PstMlu fragment of LAT and its deletion mutant ΔSty have been described. GFP-shRNA pSilencer plasmid was a kind gift from Dr Kuan-Teh Jeang, NIH, USA. The SBE4-Luc construct was a kind gift from Dr Anita Roberts, NIH, USA. The pGL3-control and pSV-βgal plasmids were obtained from Promega. The pRL-TK vector was obtained from Dr Zissimos Mourelatos, University of Pennsylvannia, USA. […] Recombinants were scored for reversion of deletion in ΔSty resulting in virus which is genetically similar to wild type virus. […]
(§5) Cells were co-transfected with pCDNA or PstMlu (1 μg) and the respective reporter constructs (500 ng) along with pSV-βgal (100 ng). […] Luciferase activity was measured using a renilla or firefly Luciferase assay kit (promega). β-galactosidase activity was determined in all lysates (promega) according to manufacturer's instructions. […]

3′UTR of SMAD-3 = test: Renilla luciferase reporter with 3′UTR / mirLAT target site of SMAD-3 in SY5Y cells
Method: as §3, §4, §5

[1] = tested on: TGF-β/SMAD-dependent transcription; test: SBE4-Luc TGF-β responsive reporter assay in SY5Y cells; settings: 10 ng/ml recombinant TGF-β1
Method: as §3
Cells were co-transfected with pCDNA or PstMlu (1 μg) and the respective reporter constructs (500 ng) along with pSV-βgal (100 ng). For induction of TGF-β signaling, 24 h following transfection the cells were treated with 10 ng/ml of recombinant TGF-β 1 protein (R&D systems) for 12-16 hours at 37° C. in serum free media. Cells were lysed using the reporter lysis buffer (promega). Luciferase activity was measured using a renilla or firefly Luciferase assay kit (promega). β-galactosidase activity was determined in all lysates (promega) according to manufacturer's instructions. The Luciferase activity in all samples was normalized to the amount of β-galactosidase activity.

TGF-β = TGF-β expression (RT-PCR, latent TGF-β1 ELISpot); settings: SY5Y cells
Method: (§6) RNA was isolated using Trizol reagent (Invitrogen). RNA was reverse transcribed using Superscript II RT enzyme (Invitrogen). Northern blot analysis of 50-60 μg total RNA was done as described previously. Western blot analysis was performed on whole cell lysates using Dicer polyclonal antibody and β-actin antibody (Amersham). SMAD-3 and TGF-β receptor I antibodies were from Abcam.
(§7) RNA was isolated using Trizol reagent according to the manufacturer's instruction. RNA was reverse transcribed using Superscript II RT enzyme (Invitrogen). Dicer, TGF-β 1, SMAD-3, TGF-β receptor I and GAPDH cDNA were amplified using gene specific primers. Northern blot analysis of 50-60 μg total RNA was done. Radioactive probes were generated using Starfire oligonucleotide labeling system (IDT). Western blot analysis was performed on whole cell lysates using Dicer polyclonal antibody, a kind gift from Dr Ramin Shiekhattar, Wistar Institute, Philadelphia, USA and β-actin antibody (Amersham). SMAD-3 and TGF-β receptor I antibodies were from Abcam. […] Synthetic RNA molecule corresponding to the mirLAT pre-miRNA (Dhramacon) was radiolabelled by polynucleotide kinase reaction (Invitrogen), column purified and incubated with 2 U Recombinant Dicer enzyme (Stratagene) at 37° C. for 16 hours and analyzed by gel electrophoresis and exposure to a phosphor imager screen.

SMAD-3 = SMAD-3 expression (RT-PCR, Western blot); settings: SY5Y cells
Method: as §6, §7

[2] = mutant target site that disrupts mirLAT binding
[3] = single copy of wild-type mirLAT target site

| Substance | cisplatin-induced apoptosis (percentage apoptosis) (SY5Y cells) | cisplatin-induced apoptosis (percentage apoptosis) (HeLa cells) | luciferase activity, mutant TGF-β target site construct (3′UTR of TGF-β; [2]) | reduction in luciferase activity, wild-type TGF-β target site construct (3′UTR of TGF-β; [3]) | luciferase activity, mutant SMAD-3 target site construct (3′UTR of SMAD-3; [2]) | reduction in luciferase activity, wild-type SMAD-3 target site construct (3′UTR of SMAD-3; [3]) | TGF-β mediated induction of SBE4-Luc reporter [1] | mRNA levels / expression of TGF-β (TGF-β) | mRNA levels / expression of SMAD-3 (SMAD-3) |
| --- | --- | --- | --- | --- | --- | --- | --- | --- | --- |
| 5′-GUGGCGGCCCGGCCCGGGGCCTT-3′ [mirLAT] | significant reduction in apoptosis | significant reduction in apoptosis | does not show any significant decrease in luciferase activity | up to 90% | does not show any significant decrease in luciferase activity | up to 90% | significant reduction in TGF-β mediated induction | – | – |
| CCAACUAUUGCUUCAGCUCTT (chemistry not given here) [TGF-β siRNA, siRNA directed against TGF-β (Ambion)] | confers resistance to apoptosis | – | – | – | – | – | – | inhibited | – |
| GCACAUAAUAACUUGGACCTT (chemistry not given here) [SMAD-3 siRNA, siRNA directed against SMAD-3 (Ambion)] | confers resistance to apoptosis | – | – | – | – | – | – | – | inhibited |
